Like-named read-outs stand apart in the source and are kept apart here.
What was measured:
[1] = test system: Capan-2 (human pancreatic cancer cells); assay: CCK-8 cytotoxic assay, Capan-2; assay type: cell-based; conditions: read-out: IC50 ± SD, Capan-2
Source text: (§1) U251 (human glioma cells), HeLa (human cervical cancer cells), and HepG2 (human hepatic cancer cells) were purchased from the Chinese Academy of Sciences (China), and Capan-2 (human pancreatic cancer cells) were obtained from Nanjing Cobioer Biosicences (Nanjing, China). American Type Culture Collection (ATCC) provided LN229 (human glioma cells). NHA (Gibco Human Astrocytes) and Gibco Astrocyte Medium (DMEM, N-2 Supplement, One Shot fetal bovine serum) were purchased from ThermoFisher Scientific (Waltham, MA, USA). The LN229, U251, HepG2 and HeLa cells were cultured in DMEM (Procell, Wuhan, China). The Capan-2 cells were cultured in RPMI-1640 (Procell, Wuhan, China) and NHA cells were cultured in Gibco Astrocyte Medium, supplemented with 10% FBS (Solarbio, Beijing, China) and 1% Penicillin–Streptomycin (Elabscience Biotechnology Co.,Ltd, Wuhan, China) at 37 °C with 5% CO2.
(§2) In the exponential phase of the growth, five tumor cell lines and one normal human astrocytes were plated onto 96-well plates at a concentration of 8000 cells/well for 24 h. Compounds 1–12 were prepared to various concentrations (64, 32, 16, 8, 4, 2, 1 and 0.5 µM in medium containing less than 0.1% DMSO) and incubated in 96-well plates (each concentration in four-fold wells) for 24 h. Cell viability was determined according to reported assay methods using the commercial CCK-8 kit (Elabscience Biotechnology Co., Ltd., Wuhan, China). The optical density (OD) of each well was measured with an AMR-100 microplate reader at 450 nm (Allsheng Corporation, Hangzhou, China). Cytotoxicity emerged as the value of the drug concentration at the inhibition of cell growth by 50% (IC50). The experiments were conducted for three independent replicates, and Doxorubicin was used as the positive control.

[2] = test system: HeLa (human cervical cancer cells); assay: CCK-8 cytotoxic assay, HeLa; assay type: cell-based; conditions: read-out: IC50 ± SD, HeLa
Source text: as §1, §2

[3] = test system: LN229 (human glioma cells); assay: CCK-8 cytotoxic assay, LN229; assay type: cell-based; conditions: read-out: IC50 ± SD, LN229
Source text: as §1, §2

[4] = test system: HepG2 (human hepatic cancer cells); assay: CCK-8 cytotoxic assay, HepG2; assay type: cell-based; conditions: read-out: IC50 ± SD, HepG2
Source text: as §1, §2

[5] = test system: NHA (normal human astrocytes); assay: CCK-8 cytotoxic assay, NHA normal astrocytes; assay type: cell-based; conditions: Astrocyte, read-out: IC50 ± SD, NHA
Source text: as §1, §2

[6] = test system: U251 (human glioma cells); assay: CCK-8 cytotoxic assay, U251; assay type: cell-based; conditions: read-out: IC50 ± SD, U251
Source text: as §1, §2

[7] = test system: five cancer cell lines (LN229, U251, Capan-2, HeLa, HepG2); assay: CCK-8 cytotoxic assay, summary over five cancer cell lines; assay type: cell-based; conditions: Homo sapiens, range over compounds 1 and 2 and five cancer cell lines, read-out: IC50 values (range) against five cancer cell lines
Source text: as §1
In the exponential phase of the growth, five tumor cell lines and one normal human astrocytes were plated onto 96-well plates at a concentration of 8000 cells/well for 24 h. […] Cell viability was determined according to reported assay methods using the commercial CCK-8 kit (Elabscience Biotechnology Co., Ltd., Wuhan, China). The optical density (OD) of each well was measured with an AMR-100 microplate reader at 450 nm (Allsheng Corporation, Hangzhou, China). […]

[8] = test system: EGFR/PI3K/Akt/mTOR signaling pathway in LN229 cells; assay: Western blot of EGFR/PI3K/Akt/mTOR signaling in LN229; assay type: cell-based, human; conditions: LN229, 24 h
Source text: (§3) Primary antibodies against Bax (50599-2-Ig), Bcl-2 (26593-1-AP), Akt (10176-2-AP), p-Akt (28731-1-AP), PI3K (20584-1-AP), p-PI3K (60225-1-Ig), mTOR (28273-1-AP), p-mTOR (67778-1-Ig), Cytochrome C (10993-1-AP), β-actin (20536-1-AP), HRP-Goat-Anti-Mouse IgG (H+L) (SA00001-1), and HRP-Goat-Anti-Rabbit IgG (H+L) (SA00001-2) were obtained from Proteintech Group, Inc. (Rosemont, USA). Primary antibodies against EGFR (WL0682a), p-EGFR (WL03432) and cleaved caspase 3 (WL01992) were obtained from Wanleibio (Shenyang, China). The LN229 cells were treated with various concentrations of 1 or 0.1% DMSO for 24 h. A BCA Protein Assay Kit was used to measure the protein concentration, then equal amounts of protein samples were separated by 10% sodium dodecyl sulfate–polyacrylamide gel electrophoresis and transferred to a polyvinylidene fluoride membrane (Millipore, Burlington, MA, USA). The membranes were blocked for 2 h in Tris-buffered saline with PBST buffer, containing 5% skim milk. Then, the membranes were incubated with the appropriate primary antibodies overnight at 4 ℃. Then, the membranes were washed with PBST and reacted with a secondary horseradish peroxidase-conjugated antibody. Image Lab 5.2.1 (Biorad Laboratories, Hercules, CA, USA) was used to analyze the blots after detection using enhanced chemiluminescence (Millipore). Data analyses were performed using the GraphPad Prism software (San Diego, CA, USA).

[9] = test system: glioma cells LN229; assay: Flow cytometry analysis for apoptosis (Annexin V-FITC/PI); assay type: cell-based, human; conditions: different concentrations, 24 h
Procedure: Flow cytometry was used to analyze the effect of 1 on the apoptosis of glioma cells LN229. Cells were treated with different concentrations of 1 for 24 h. Then, the cells were collected and washed twice with cold PBS for five minutes (1000 rpm). The cells were analyzed for apoptosis by flow cytometry (BD, Franklin Lakes, NJ, USA) using the Annexin V-FITC/PI assay kit.

[10] = test system: Bax/Bcl-2, cleaved caspase 3, cytochrome c in LN229 cells; assay: Western blot of apoptosis-related proteins in LN229; assay type: cell-based, human; conditions: LN229, 24 h, compared with the control group
Source text: as §3

[11] = LN-229, LN229 cells, CCK-8, 24 h
[12] = NHA normal human astrocytes, CCK-8, 24 h

| Structure (SMILES) | IC50 ([1]; Capan-2 cells, CCK-8, 24 h) [µM] | IC50 ([2]; HeLa cells, CCK-8, 24 h) [µM] | IC50 [3, 11] [µM] | IC50 ([4]; HepG2 cells, CCK-8, 24 h) [µM] | IC50 [5, 12] [µM] | IC50 ([6]; U-251, U251 cells, CCK-8, 24 h) [µM] | also measured |
| --- | --- | --- | --- | --- | --- | --- | --- |
| C=C1C(=O)OC2CC3C4CC=C5CC(OC6OC(CO)C(OC7OC(C)C(O)C(O)C7O)C(O)C6OC6OC(C)C(O)C(O)C6O)CCC5(C)C4CCC3(C)C12 (stereo not drawn) [Compound 5, chonglouoside SL-8] | > 50 | > 50 | > 50 | > 50 | > 50 | > 50 |  |
| C=C1C(=O)OC2CC3C4CC=C5CC(OC6OC(CO)C(OC7OC(CO)C(O)C7O)C(O)C6OC6OC(C)C(O)C(O)C6O)CCC5(C)C4CCC3(C)C12 (stereo not drawn) [Compound 3] | > 50 | > 50 | > 50 | > 50 | > 50 | > 50 |  |
| Cc1c(CCC(C)COC2OC(CO)C(O)C(O)C2O)ccc2c1C1(C)CCC3C(CC=C4CC(OC5OC(CO)C(O)C(O)C5OC5OC(C)C(O)C(O)C5O)CCC43C)C1C2 (stereo not drawn) [Compound 12, parispseudoside B] | > 50 | > 50 | > 50 | > 50 | > 50 | > 50 |  |
| CC(=O)C1=CC[C@H]2[C@@H]3CC=C4C[C@@H](O[C@@H]5O[C@H](CO)[C@@H](O[C@@H]6O[C@@H](C)[C@H](O)[C@@H](O)[C@H]6O)[C@H](O)[C@H]5O[C@@H]5O[C@@H](C)[C@H](O)[C@@H](O)[C@H]5O)CC[C@]4(C)[C@H]3CC[C@]12C [Compound 11, hypoglaucin H] | > 50 | > 50 | > 50 | > 50 | > 50 | > 50 |  |
| CC1CCC2(OC1)OC1CC3C4CC=C5CC(OC6OC(COC7(CO)OC(CO)C(O)C7O)C(OC7OC(CO)C(O)C7O)C(O)C6OC6OC(C)C(O)C(O)C6O)CCC5(C)C4CCC3(C)C1C2C [Compound 2, diosgenin-3-O-β-D-fructofuranosyl-(1 → 6)-[α-L-arabinofuranosyl-(1→4)]-[α-L-rhamnopyranosyl-(1→2)]-β-D-glucopyranoside] | 20.4 ± 1.05 | 22.3 ± 1.33 | 15.4 ± 0.47 | 18.8 ± 1.25 | > 50 | 15.8 ± 0.65 | IC50 [7]: 3.26 to 22.3 µM |
| COc1cccc2c1C(=O)c1c(O)c3c(c(O)c1C2=O)C[C@@](O)(C(=O)CO)C[C@@H]3O[C@H]1C[C@H](N)[C@H](O)[C@H](C)O1 [Doxorubicin, reference compound] | 0.18 ± 0.02 | 0.18 ± 0.02 | 0.35 ± 0.05 | 0.21 ± 0.02 | > 50 | 0.21 ± 0.04 |  |
| C=C1C(=O)OC2CC3C4CC=C5CC(OC6OC(CO)C(O)C(O)C6OC6OC(C)C(O)C(O)C6O)CCC5(C)C4CCC3(C)C12 (stereo not drawn) [Compound 6, pallidifloside D] |  |  |  |  |  |  | IC50 ([1]; Capan-2, 24 h): > 50 µM; IC50 ([2]; HeLa, 24 h): > 50 µM; IC50 ([3]; LN-229, 24 h): > 50 µM; IC50 ([4]; HepG2, 24 h): > 50 µM; IC50 ([5]; Homo sapiens, 24 h): > 50 µM; IC50 ([6]; U-251, 24 h): > 50 µM |
| CC(=O)C1=CCC2C3CC=C4C[C@@H](O[C@@H]5O[C@H](CO)[C@@H](O[C@@H]6O[C@@H](CO)[C@H](O)[C@H]6O)[C@H](O)[C@H]5O[C@@H]5O[C@@H](C)[C@H](O)[C@@H](O)[C@H]5O)CC[C@]4(C)C3CC[C@]12C (stereo partly drawn) [Compound 4, pregna-5,16-diene-3β-ol-20-one-3-O-α-L-arabinofuranosyl-(1 → 4)-[α-L-rhamnopyranosyl(1 → 2)]-β-D-glucopyranoside] | > 50 | > 50 | > 50 | > 50 | > 50 | > 50 |  |
| CC(=O)C1=CCC2C3CC=C4C[C@@H](O[C@@H]5O[C@H](CO)[C@@H](O)[C@H](O)[C@H]5O[C@@H]5O[C@@H](C)[C@H](O)[C@@H](O)[C@H]5O)CC[C@]4(C)C3CC[C@]12C (stereo partly drawn) [Compound 10, spongipregnolosides A] | > 50 | > 50 | > 50 | > 50 | > 50 | > 50 |  |
| Cc1c(CCC(C)COC2OC(CO)C(O)C(O)C2O)ccc2c1C1(C)CCC3C(CC=C4CC(OC5OC(CO)C(OC6OC(CO)C(O)C6O)C(O)C5OC5OC(C)C(O)C(O)C5O)CCC43C)C1C2 [Compound 8, 3-O-α-L-arabinofuranosyl-(1 → 4)-[α-L-rhamnopyranosyl (1 → 2)]-β-D-glucopyranosyl-β-D-chacotriosyl-26-O-β-D-glucopyranoside] | > 50 | > 50 | > 50 | > 50 | > 50 | > 50 |  |
| CC1CCC2(OC1)OC1CC3C4CC=C5CC(OC6OC(COC7(CO)OC(CO)C(O)C7O)C(O)C(O)C6OC6OC(C)C(O)C(O)C6O)CCC5(C)C4CCC3(C)C1C2C [Compound 1, diosgenin-3-O-β-D-fructofuranosyl-(1→6)-[α-L-rhamnopyranosyl-(1 → 2)]-β-D-glucopyranoside] | 3.26 ± 0.34 | 3.3 ± 0.38 | 4.18 ± 0.31 | 4.32 ± 0.51 | > 50 | 3.85 ± 0.44 | IC50 [7]: 3.26 to 22.3 µM; expression level of p-Akt [8]: decreased; expression level of p-PI3K [8]: decreased; expression level of p-mTOR [8]: decreased; expression of total EGFR [8]: no evident effect; phosphorylation levels of EGFR [8]: significantly suppressed; ratio of apoptotic LN229 (Annexin V+/PI−) [9]: increased; ratio of living cells (Annexin V−/PI−) [9]: decreased; expression of Bax/Bcl-2 [10]: significantly increased; expression of cleaved caspase 3 [10]: significantly increased; expression of cytochrome c [10]: significantly increased |
| Cc1c(CCC(C)COC2OC(CO)C(O)C(O)C2O)ccc2c1C1(C)CCC3C(CC=C4CC(OC5OC(CO)C(OC6OC(C)C(OC7OC(C)C(O)C(O)C7O)C(O)C6O)C(O)C5OC5OC(C)C(O)C(O)C5O)CCC43C)C1C2 (stereo not drawn) [Compound 7, parispseudoside A] | > 50 | > 50 | > 50 | > 50 | > 50 | > 50 |  |
| Cc1c(CCC(C)COC2OC(CO)C(O)C(O)C2O)ccc2c1C1(C)CCC3C(CC=C4CC(OC5OC(CO)C(OC6OC(C)C(O)C(O)C6O)C(O)C5OC5OC(C)C(O)C(O)C5O)CCC43C)C1C2 (stereo not drawn) [Compound 9, aethioside A] | > 50 | > 50 | > 50 | > 50 | > 50 | > 50 |  |
